Laboratory results as given in the supplement of paper PMC4954754.
“And” between values parts separate entries of the source, which are not always exact repeats. Equal values may be shown once. ± gives the uncertainty stated by the source.

Assays:
Settings in all cases: 18 h
HEK293T-Rex ERSE-FLuc [1] = experiment: EC50 for ERSE-FLuc reporter activation
Procedure: (§1)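 Dose-response of hit compounds in HEK293T-Rex cells stably expressing ERSE-FLuc or XBP1-RLuc reporters, 18 hr treatment, 1536-well; luminescence normalised to 500 nM thapsigargin (100%) and DMSO (0%), fitted to give EC50 (M) and maximal activation; '>' marks EC50 above the top tested dose (~17 µM).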

HEK293T-Rex XBP1-RLuc [2] = experiment: EC50 for XBP1-RLuc reporter activation
Procedure: as §1

HEK293T-Rex ERSE-FLuc [3] = experiment: maximal ERSE-FLuc activation from dose-response fit, relative to thapsigargin (% of thapsigargin); higher = stronger activation
Procedure: as §1

HEK293T-Rex XBP1-RLuc [4] = experiment: maximal XBP1-RLuc activation from dose-response fit, relative to thapsigargin (% of thapsigargin); higher = stronger activation
Procedure: as §1

Row | SMILES | EC50 for ERSE-FLuc reporter activation (HEK293T-Rex ERSE-FLuc [1]) | EC50 for XBP1-RLuc reporter activation (HEK293T-Rex XBP1-RLuc [2]) [µM] | maximal ERSE-FLuc activation (HEK293T-Rex ERSE-FLuc [3]) | maximal XBP1-RLuc activation (HEK293T-Rex XBP1-RLuc [4])
1 | O=C1NC(=Nc2ccc(F)cc2)S/C1=C\c1ccc(O)c(O)c1 | 6.92 µM | 12.4 | 85.9 ± 7.7 | 55.3 ± 2.5
2 | Cc1ccc(O)c(-c2cc(C(F)(F)C(F)F)no2)c1 | 7.56 µM | > 16.7 | 79.8 ± 24 | 23.6 ± 5.9
3 | CC(Oc1ccc(Cl)cc1Cl)C(=O)NNC(=O)c1ccc(O)c(O)c1 (stereo not drawn) | > 14.9 µM | > 14.9 | 50 ± 8.3 | 45.2 ± 5.7
4 | CCOc1cc(C2C(C(=O)OC3CCCCC3)=C(C)NC3=C2C(=O)CC(c2ccc(OC)cc2)C3)cc(Br)c1O (stereo not drawn) | 3.95 µM | 5.3 | 70.43 ± 0.082 | 88.6 ± 10
5 | Nc1nc(Nc2ccccc2)cc(-c2ccccc2)n1 | > 17.2 µM | > 17.2 | 25.8 ± 9.6 | 3.36 ± 1.2
6 | COc1ccc(/C=N/c2sc3c(c2C(N)=O)CCCC3)cc1 | > 16.9 µM | > 16.9 | 20.9 ± 2 | 4.94 ± 3.8
7 | O=C(CCc1ccccc1)Nc1ccc(Cl)cn1 | > 17.7 µM | > 17.7 | 26.1 ± 2.5 | 5.24 ± 0.68
8 | O=c1[nH]c(/C=C2\C=Nc3ccccc32)c(O)n1-c1ccc(Cl)cc1 | > 16.9 µM | 4.87 | 44.1 ± 7.8 | 89 ± 4.6
9 | CC(=O)Oc1ccc(C(=O)OCc2ccc(Cl)cc2)cc1OC(C)=O | > 18.6 µM | > 18.6 | 40.4 ± 4.3 | 24.7 ± 3.7
10 | COc1ccccc1OCC(=O)Nc1cc(C)ccc1O | > 16.9 µM | > 16.9 | 45.8 ± 4.2 | 22.9 ± 1.1
11 | Cc1ccc(O)c(NC(=O)c2cc(-c3ccc(O)cc3)on2)c1 | 9.05 µM | > 16.9 | 58.9 ± 2.1 | 30.8 ± 5.7
12 | Cc1ccc(O)c(-c2cc(-c3cccs3)[nH]n2)c1 | 8.75 µM | > 18.9 | 131 ± 8.8 | 27.5 ± 2.1
13 | Cc1ccc2c(N)c(C(=O)c3ccc4c(c3)OCO4)sc2n1 | > 16.9 µM | > 16.9 | 25.1 ± 2.7 | 11.4 ± 3.8
14 | COc1ccc(/C=C/c2nc3cc([N+](=O)[O-])ccc3s2)cc1O | > 18.5 µM | > 18.5 | 39.5 ± 2.4 | 8.74 ± 5.7
15 | COc1ccc(/C(C)=N/OC/C(O)=C(\C#N)c2nc3ccccc3[nH]2)cc1OC | > 17.2 µM | > 17.2 | 5.39 ± 2.3 | 3.33 ± 0.88
16 | CN(C)/C=N/C1=C(C#N)C(c2ccc3c(c2)OCO3)c2ccc3ccccc3c2O1 (stereo not drawn) | > 16.6 µM | > 16.6 | 21.8 ± 6.6 | 7.29 ± 3.2
17 | Cc1ccc(/C=N/NC(=O)c2cccc(Cl)c2)cc1 | > 16.9 µM | > 16.9 | 36.9 ± 7.8 | 3.19 ± 1.2
18 | COc1ccccc1-c1nnc(Nc2nc3c(OC)cccc3s2)o1 | > 16.9 µM | > 16.9 | 32.7 ± 3 | 12.5 ± 1
19 | CCc1cc2c(=O)c(-c3ccc4c(c3)OCCO4)coc2cc1OC | > 15 µM | > 15 | 31.2 ± 5.7 | 14.1 ± 1.5
20 | O=C(NC(c1ccccc1)c1ccccc1)c1csc(-c2cnccn2)n1 | > 16.9 µM | > 16.9 | 34.2 ± 3.6 | 43.4 ± 9.4
21 | COc1ccc(/C=C(\C#N)c2nc3ccccc3n2C)cc1 | > 16.9 µM | > 16.9 | 32.1 ± 2 | 0.49 ± 1.4

Row | SMILES | EC50 for ERSE-FLuc reporter activation (HEK293T-Rex ERSE-FLuc [1]) | EC50 for XBP1-RLuc reporter activation (HEK293T-Rex XBP1-RLuc [2]) [µM] | maximal ERSE-FLuc activation (HEK293T-Rex ERSE-FLuc [3]) | maximal XBP1-RLuc activation (HEK293T-Rex XBP1-RLuc [4])
22 | N#C/C(=C(/O)c1cc(-c2ccccc2)nc2ccccc12)c1nc2ccccc2[nH]1 | > 15.9 µM | > 15.9 | 24.8 ± 8.7 | 17.9 ± 1.4
23 | COc1ccc(CCNC(=O)c2cccc(-c3ccc(N4CCOCC4)nc3)c2)cc1 | > 17 µM | > 17 | 15.9 ± 4.6 | 2.04 ± 0.93
24 | COc1cccc(-c2cc(C(=O)Nc3cc(C)ccc3O)on2)c1 | 8.72 µM | > 16.9 | 87 ± 20 | 25.6 ± 5.2
25 | Nc1ccc2nc(-c3cc(Cl)c(N)c(Cl)c3)[nH]c2c1 | > 13 µM | > 13 | 22.7 ± 10 | 13.1 ± 1.1
26 | O=C(Nc1ccc2nc(NC(=O)C3CCCCC3)sc2c1)C1CCCCC1 | > 10.2 µM | > 10.2 | 13.9 ± 2.4 | 5.73 ± 2.7
27 | Oc1cccc(/C=N/Nc2ccc(Cl)nn2)c1O | > 17.9 µM | > 17.9 | 41.7 ± 1.8 | 19.4 ± 1
28 | O=C(Nc1nc2c(s1)CCCC2)c1cccc2ccccc12 | > 18.2 µM | > 18.2 | 32.2 ± 1.6 | 6.96 ± 1.1
29 | Cc1ccc(O)c(NC(=O)c2cc(-c3ccco3)on2)c1 | 4.85 µM | > 16.9 | 167.3 ± 1.6 | 34.4 ± 4.2
30 | N#Cc1c(NC(=O)c2ccc3ncsc3c2)sc2c1CCC2 | > 16.6 µM | > 16.6 | 22.2 ± 2.5 | 4.53 ± 1.1
31 | Cc1nc(-c2ccc(C(=O)Nc3ccc(O)cc3)cc2)cs1 | > 16.9 µM | 12.9 | 27.7 ± 1.8 | 65.5 ± 3.6
32 | O=C(/C=C/c1ccccc1)Nc1ccc(Cl)cn1 | > 18.6 µM | > 18.6 | 22.1 ± 7 | 2.19 ± 0.65
33 | O=c1cc(-c2ccc(O)c(O)c2)oc2cc(O)cc(O)c12 | 14.1 µM and 7.57 µM | > 16.9 | 80.9 and 67.8 | 36.6 and 29
34 | CC(=Nc1ccc(O)cc1)c1sc2ccccc2c1O | > 19.6 µM | > 19.6 | 19.8 ± 4.8 | 31.2 ± 4.8
35 | O=C1N/C(=C\c2ccc(O)cc2)C(O)=C1C=NCc1ccccc1 | > 16.9 µM | 2.96 | 40.4 ± 7.5 | 74.2 ± 4.9
36 | CCOc1cccc(/C=C2\NC(=S)N(C)C2=O)c1O | > 16.9 µM | > 16.9 | 6.21 ± 2 | 0.0882 ± 1.7
37 | Cn1cccc1/C=C1/SC(=Nc2ccccc2)NC1=O | > 16.7 µM | > 16.7 | 40.8 ± 2.8 | 18.6 ± 6.5
38 | COc1cccc(Nc2nc(-c3ccc(OC)c(F)c3)cs2)c1 | > 16.9 µM | > 16.9 | 19.7 ± 3.5 | 3.68 ± 1.6
39 | CCN(CC)c1ccc(NC(=O)c2cccc(OC)c2)cc1 | > 17.8 µM | > 17.8 | 29.7 ± 5.3 | 2.18 ± 7.1
40 | COc1ccc(-n2nnnc2SCC(N)=O)c(OC)c1 | > 16.9 µM | > 16.9 | 11.9 ± 3.1 | 1.34 ± 2.6
41 | COc1cn(-c2ccc(F)cc2)nc1C(=O)Nc1ccccc1SC | 6.64 µM | > 16.9 | 80.8 ± 17 | 40.2 ± 0.22
42 | Cc1ccc2nc(/C(C#N)=C/c3ccc(O)c(O)c3)[nH]c2c1 | > 16.9 µM | > 16.9 | 23.4 ± 2.9 | 19.7 ± 5.9
